The record followed here is patent publication US9650427B2, “Modulators of antiviral signaling pathways and therapeutic uses thereof” (priority 2011, dated 2017).

One test concerns RLR/MAVS pathway. As to the kind of experiment: PolyIC-induced IFN expression in polarized T84 cells, quantitative RT-PCR. The class given is cell-based, human. As to conditions: T84 cells pretreated 1 hour with peptide/inhibitor, then PolyIC for 5 hours; FIG. 2. The method, then: FIG. 2 includes graphs showing the inhibitory effects of the novel RLR/MAVS signaling inhibitor. The results are from T84 cells that were treated for 1 hr with the inhibitors shown and then treated with PolyIC (PIC) for 5 hours. Cytokine expression was then assessed by qPCR. The y-axis indicates fold induction over untreated cells (UI).
To determine if the MAVS peptide can block RLR signaling in human cells, experiments were performed in the human intestinal epithelial cell (IEC) line T84 comparing the peptide to a previously characterized antennapedia-peptide that targets the TLR adaptor MyD88. These cells were chosen because it is well-known that many viruses penetrate the intestinal epithelium and it has been shown that they respond naturally to both TLR and RLR ligands (FIG. 2 and data not shown). Polarized T84 cells were pretreated for 1 hour with each peptide and then treated for 5 hours with synthetic viral RNA PolyIC, which activates signaling by […]. […] This inhibitory affect was specific, as the IFN expression was unaffected in cells treated with control peptides.

Test [1] has as its system antiviral responses in human cells. As to the kind of experiment: Blocking of antiviral responses in human cells. The class given is cell-based. As to conditions: at micromolar concentrations. The source says:
Accordingly, described herein is a cell-permeable peptide inhibitor of antiviral pathways that operates in every human cell. It consists of the cell penetrating domain of the Drosophila antennapedia protein and amino acids 50-73 of the human MAVS protein. […]. This peptide represents the first described means of blocking antiviral responses in human cells before or at any time after infection by a virus. Moreover, this molecule can serve as a therapeutic to treat inflammatory autoimmune diseases (e.g., those that are caused by inappropriate activation of antiviral responses). No other method currently exists to accomplish these goals.

Turning to `CCN(CC)CCCC(C)Nc1ccnc2cc(Cl)ccc12` (stereo not drawn) [chloroquine, reference compound], the “expression of Type I IFN (IFNβ) and Type III IFN IL-29 in response to PolyIC” value with RLR/MAVS pathway was “neither chloroquine (which blocks TLRs that detect viral RNA) nor inhibitors of the dsRNA dependent kinase PKR, affected”.

For the compound “GNRDTLWHLFNTLQRRPGWVEYFI-RQIKIWFQNRRMKWKK (GNRDTLWHLFNTLQRRPGWVEYFIRQIKIWFQNRRMKWKK) [MAVS peptide, fusion peptide of amino acids 50-73 of MAVS and the cell penetrating domain of the antennapedia protein]”, in the test on RLR/MAVS pathway, the “expression of Type I IFN (IFNβ) and Type III IFN IL-29 in response to PolyIC” value was “completely abolished”. Further, in test [1], the “antiviral responses (expression of Type I and III interferons and interferon stimulated genes, including viperin)” value is recorded as “blocks antiviral responses in human cells at micromolar concentrations”.
